For the test, the target named is T1, TbNMT (Trypanosoma brucei brucei, UniProt Q388H8).
T1 sequence (Q388H8 1-446): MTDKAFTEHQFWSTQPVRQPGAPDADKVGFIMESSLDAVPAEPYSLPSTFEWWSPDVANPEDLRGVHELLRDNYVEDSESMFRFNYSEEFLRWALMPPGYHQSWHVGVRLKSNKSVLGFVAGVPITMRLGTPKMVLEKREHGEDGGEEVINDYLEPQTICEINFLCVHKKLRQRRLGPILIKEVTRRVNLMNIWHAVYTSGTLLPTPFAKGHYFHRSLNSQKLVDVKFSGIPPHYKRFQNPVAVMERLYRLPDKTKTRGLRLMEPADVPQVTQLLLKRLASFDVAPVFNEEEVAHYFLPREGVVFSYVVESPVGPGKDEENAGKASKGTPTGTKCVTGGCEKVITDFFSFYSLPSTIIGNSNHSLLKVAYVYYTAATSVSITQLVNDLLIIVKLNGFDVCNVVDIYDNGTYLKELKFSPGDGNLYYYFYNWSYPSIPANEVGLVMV
Put plainly: biochemical.

From paper PMC3256935 (Journal of Medicinal Chemistry, 2011) come the findings set out here.

`Cc1nn(C)c(C)c1NCc1ccc(Br)cc1` [Compound 21] returned a half-inhibitory concentration (IC50) above 100 µM.

In general, IC50 refers to the midpoint of a concentration-inhibition curve. High values mean a need for much substance, low ones inhibition by little substance.
